Experiments:
[1] = tested on: Akt substrates GSK3α/β, TSC2, and FoxO1/O3a in L6 myotubes; experiment: Akt substrate phosphorylation in L6 myotubes (Western blot); type: cell-based; conditions: for phosphorylation of Akt and its substrates: insulin
[2] = tested on: Akt phosphorylation in SIN1−/− MEFs; experiment: Akt phosphorylation in primary SIN1−/− MEFs (Western blot); type: cell-based, mouse; conditions: insulin, PIK-90 625 nM, BX-795 10 μM
[3] = tested on: S6K, S6 and 4EBP1 phosphorylation in L6 myotubes; experiment: mTORC1 substrate phosphorylation in L6 myotubes (Western blot); conditions: Figure S3
PKC-beta = PKC-beta (Homo sapiens, UniProt P05771); conditions: in vitro, purified protein
Experimental: (§1) Phosphorylation of histone H1 (4 μM) by PKC was assayed in a buffer containing 200 ng/ml recombinant kinase, 25 mM HEPES pH 7.5, 10 mM MgCl2, 5 mM ß-glycerol phosphate, 0.05 mg/ml phosphatidylserine, 0.03% Triton X-100, 0.5 mg/ml BSA, 2.5 mM DTT, 100 μM CaCl2, 1 μM PMA, 10 μM ATP, and 15 μCi/ml of γ-^32P-ATP. Inhibitors were tested in a four-fold dilution series from 10 μM to 600 pM, and four measurements were made at each concentration. The kinase reaction was terminated by spotting onto nitrocellulose, which was washed 5 times with 1 M NaCl/1% phosphoric acid. The radioactivity remaining on the nitrocellulose sheet was quantified by phosphorimaging, and IC50 values were determined by fitting the data to a sigmoidal dose-response curve using the Prism software package.

PDK1 = target: T1, PDK1 (Homo sapiens, UniProt O15530); experiment: biochemical
T1 sequence (O15530 1-556): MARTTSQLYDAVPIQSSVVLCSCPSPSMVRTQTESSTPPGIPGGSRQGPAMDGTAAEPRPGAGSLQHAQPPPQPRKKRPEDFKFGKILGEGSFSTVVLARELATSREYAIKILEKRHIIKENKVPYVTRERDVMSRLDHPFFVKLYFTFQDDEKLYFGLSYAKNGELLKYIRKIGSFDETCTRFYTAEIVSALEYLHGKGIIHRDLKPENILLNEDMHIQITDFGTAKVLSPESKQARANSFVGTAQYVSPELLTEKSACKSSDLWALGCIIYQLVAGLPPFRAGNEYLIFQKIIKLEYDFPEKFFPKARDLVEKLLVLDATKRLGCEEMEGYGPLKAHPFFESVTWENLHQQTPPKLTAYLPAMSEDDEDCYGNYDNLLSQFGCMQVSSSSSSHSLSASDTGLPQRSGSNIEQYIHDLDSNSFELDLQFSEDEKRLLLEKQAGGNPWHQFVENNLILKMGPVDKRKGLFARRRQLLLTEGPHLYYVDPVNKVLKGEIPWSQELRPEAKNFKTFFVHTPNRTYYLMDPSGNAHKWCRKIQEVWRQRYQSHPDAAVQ

PKCβI = PKCβI (Homo sapiens, UniProt P05771); experiment: biochemical
Experimental: as §1

PKCβII = PKCβII (Homo sapiens, UniProt P05771); experiment: biochemical
Experimental: as §1

[4] = tested on: pT308 of S473A Akt in HEK293 cells; type: cell-based; conditions: HEK293, insulin, 2.5 μM PP242
[5] = tested on: new protein synthesis in primary MEFs; experiment: 35S labeling of new protein synthesis; type: cell-based, mouse; conditions: overnight
Experimental: Primary MEFs grown to 70% confluence in six-well plates were incubated overnight in either 10% Serum (Steady State), kinase inhibitors in 10% serum, or 0.1% serum (starved). Cells were then washed once with DMEM lacking cysteine and methionine (DMEM-noS), and the medium was replaced with DMEM-noS including dialyzed serum and kinase inhibitors as indicated. After incubation for 1 h, 50 μCi of Expre^35S^35S (NEN) was added to each well and the cells were labeled for 4 h. Cells were washed once with ice-cold PBS, and lysed as described above for Western blotting. Following separation by SDS-PAGE, and transfer to nitrocellulose, ^35S-labeled proteins were visualized by autoradiography with film. For quantitation, the membrane was exposed to a phosphorimager screen and the resulting image was quantified in ImageJ. Differences in ^35S incorporation were analyzed for statistical significance by one-way ANOVA with Tukey's post test using the Prism software package.

[6] = tested on: Akt, S6 and 4EBP1 phosphorylation in fat, skeletal muscle, and liver; experiment: In vivo drug treatment and Western blotting of insulin signaling; set-up: species or system C57BL/6 mice; conditions: mice; for S6 phosphorylation, all tissues examined / phosphorylation of 4EBP1 on T36/45 and S65, all tissues examined: rapamycin 5 mg/kg or PP242 20 mg/kg IP
Experimental: Drugs were prepared in 100 μl of vehicle containing 20% DMSO, 40% PEG-400, and 40% saline. Six-wk-old male C57BL/6 mice were fasted overnight prior to drug treatment. […] 15 min after the insulin injection, the mice were killed by CO2 asphyxiation followed by cervical dislocation. Tissues were harvested and frozen on liquid nitrogen in 200 μl of cap lysis buffer. The frozen tissue was thawed on ice, manually disrupted with a mortar and pestle, and then further processed with a micro tissue-homogenizer (Fisher PowerGen 125 with Omni-Tip probe). Protein concentration of the cleared lysate was measured by Bradford assay and 5–10 μg of protein was analyzed by Western blot as described above.

[7] = tested on: Akt phosphorylation in wild-type MEFs; experiment: Akt phosphorylation in primary wild-type MEFs (Western blot); type: cell-based, mouse; conditions: long-term rapamycin (100 nM, 24 h)
primary wild-type MEFs = experiment: Cell proliferation assay (resazurin), wild-type MEFs; type: cell-based, mouse; conditions: cultured 3 d, resazurin fluorescence
Experimental: (§2) Wild-type and SIN1^−/− MEFs were plated in 96-well plates at approximately 30% confluence and left overnight to adhere.

[8] = tested on: 4EBP1 bound to eIF4E in L6 myotube lysates; experiment: Cap pull-down assay (m7GTP beads); type: cell-based
Experimental: L6 myotubes from one well of a six-well plate were lysed in 300 μl of cap lysis buffer as described above. 50 μl of detergent-free cap lysis buffer and 20 μl of pre-washed cap beads were added to 150 μl of cleared lysate and incubated at 4 °C overnight with tumbling. The beads were washed twice with 400 μl of cap wash buffer (cap lysis buffer with 0.5% NP-40 instead of 1% NP-40) and twice with 500 μl of PBS. The beads were boiled in SDS-PAGE sample buffer and the retained proteins analyzed by Western blot. All antibodies were from Cell Signaling Technologies except for the anti-eIF4E antibody, which was from BD Biosciences.

[9] = tested on: cap-dependent and IRES-dependent translation in primary MEFs; experiment: Bicistronic reporter assay; type: cell-based, mouse; conditions: overnight, 10% serum
Experimental: Primary MEFs were transfected with a bicistronic reporter [54] containing a viral IRES using Lipofectamine 2000 according to the manufacturers protocol. At 2 d post transfection, cells were treated overnight with compounds as indicated or starved of serum. The next day, Renilla and Firefly luciferase activity were measured using the Dual-Luciferase kit (Promega). Differences in the ratio of Renilla to Firefly luciferase signals were analyzed for statistical significance by one-way ANOVA with Tukey's post test using the Prism software package.

SIN1−/− MEFs = experiment: Cell proliferation assay (resazurin), SIN1−/− MEFs; conditions: compared with PP242
Experimental: as §2

Sequence of PKC-beta (P05771 2-621 limits assumed): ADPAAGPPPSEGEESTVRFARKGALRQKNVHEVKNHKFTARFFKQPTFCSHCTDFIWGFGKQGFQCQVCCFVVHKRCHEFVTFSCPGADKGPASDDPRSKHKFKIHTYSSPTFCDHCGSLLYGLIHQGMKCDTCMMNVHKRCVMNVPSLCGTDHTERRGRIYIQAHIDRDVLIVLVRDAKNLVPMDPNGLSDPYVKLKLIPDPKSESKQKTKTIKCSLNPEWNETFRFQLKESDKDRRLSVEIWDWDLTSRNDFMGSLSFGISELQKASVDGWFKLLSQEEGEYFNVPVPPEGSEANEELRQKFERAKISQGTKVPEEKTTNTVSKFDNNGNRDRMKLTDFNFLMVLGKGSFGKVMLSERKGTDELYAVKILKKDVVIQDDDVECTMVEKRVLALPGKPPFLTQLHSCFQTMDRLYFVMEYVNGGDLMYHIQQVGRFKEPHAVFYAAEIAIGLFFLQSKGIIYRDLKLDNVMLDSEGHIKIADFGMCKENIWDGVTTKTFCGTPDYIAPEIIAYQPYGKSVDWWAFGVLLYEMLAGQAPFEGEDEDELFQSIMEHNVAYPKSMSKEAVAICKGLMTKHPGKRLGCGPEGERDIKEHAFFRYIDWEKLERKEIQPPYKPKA
Sequence of PKCβII (P05771 1-673 isoform P05771-2): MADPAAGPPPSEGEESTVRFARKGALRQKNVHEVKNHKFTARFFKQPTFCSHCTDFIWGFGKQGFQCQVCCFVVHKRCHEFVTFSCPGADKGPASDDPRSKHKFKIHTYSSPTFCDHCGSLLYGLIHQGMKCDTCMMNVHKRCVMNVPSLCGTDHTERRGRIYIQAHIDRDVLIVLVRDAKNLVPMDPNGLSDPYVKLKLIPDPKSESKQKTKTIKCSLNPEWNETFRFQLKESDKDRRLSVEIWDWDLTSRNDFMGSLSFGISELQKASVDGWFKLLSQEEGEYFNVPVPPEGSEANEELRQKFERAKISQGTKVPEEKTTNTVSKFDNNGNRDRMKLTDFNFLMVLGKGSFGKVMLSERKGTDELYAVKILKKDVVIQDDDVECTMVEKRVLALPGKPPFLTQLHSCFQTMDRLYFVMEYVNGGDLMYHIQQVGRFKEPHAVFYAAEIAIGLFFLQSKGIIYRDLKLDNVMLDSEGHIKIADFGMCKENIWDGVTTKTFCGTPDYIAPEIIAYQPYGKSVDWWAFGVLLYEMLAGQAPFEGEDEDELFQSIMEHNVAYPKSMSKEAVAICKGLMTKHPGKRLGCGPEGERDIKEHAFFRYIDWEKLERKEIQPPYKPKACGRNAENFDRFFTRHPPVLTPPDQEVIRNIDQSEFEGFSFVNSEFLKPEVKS
Sequence of PKCβI (P05771 whole entry): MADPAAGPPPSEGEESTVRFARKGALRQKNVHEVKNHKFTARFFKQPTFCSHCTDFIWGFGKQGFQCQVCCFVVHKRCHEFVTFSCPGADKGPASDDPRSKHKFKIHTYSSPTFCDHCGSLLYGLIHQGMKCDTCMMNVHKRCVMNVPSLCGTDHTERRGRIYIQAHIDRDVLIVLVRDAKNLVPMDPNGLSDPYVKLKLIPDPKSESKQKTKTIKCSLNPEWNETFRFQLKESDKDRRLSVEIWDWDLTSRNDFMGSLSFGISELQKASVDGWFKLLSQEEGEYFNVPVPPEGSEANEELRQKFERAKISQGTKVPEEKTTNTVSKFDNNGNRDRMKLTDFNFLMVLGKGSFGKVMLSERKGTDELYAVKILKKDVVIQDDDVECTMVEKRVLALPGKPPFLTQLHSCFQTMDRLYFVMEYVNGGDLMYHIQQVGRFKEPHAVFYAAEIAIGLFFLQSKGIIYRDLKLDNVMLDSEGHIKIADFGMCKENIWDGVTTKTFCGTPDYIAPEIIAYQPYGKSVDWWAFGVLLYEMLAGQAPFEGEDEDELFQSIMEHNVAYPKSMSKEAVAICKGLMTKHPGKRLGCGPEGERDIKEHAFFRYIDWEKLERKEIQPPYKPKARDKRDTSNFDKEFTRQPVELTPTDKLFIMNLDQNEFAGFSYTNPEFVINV

O=c1[nH]c2ccccc2n1C1CCN(Cc2ccc(-c3nc4cc5nc[nH]c5cc4nc3-c3ccccc3)cc2)CC1 [Akti-1/2]
FoxO1/O3a phosphorylation at T24/T32 [1]: inhibits
phosphorylation of Akt and its substrates [1]: completely inhibited

O=C(NCCCNc1nc(Nc2cccc(NC(=O)N3CCCC3)c2)ncc1I)c1cccs1 [BX-795]
phosphorylation of Akt T308 [2]: blocked

COc1ccc2c(c1OC)N=C(NC(=O)c1cccnc1)N1CCN=C21 [PIK-90]
phosphorylation of Akt T308 [2]: blocked
phosphorylation of Akt and its substrates [1]: completely inhibited
phosphorylation of 4EBP1 at T36/45 [3]: did not reduce

CC(C)n1nc(-c2cccc(C(=O)NC3=NCCS3)c2)c2c(N)ncnc21 [PP30]
activity against PKC-beta (PKC-beta): no activity
IC50 (PDK1): > 10 µM
IC50 (PKCβI): > 10 µM
IC50 (PKCβII): > 10 µM

CC(C)n1nc(-c2cc3cc(O)ccc3[nH]2)c2c(N)ncnc21 [PP242]
T308-P on S473A Akt [4]: not inhibited
phosphorylation of Akt T308 [2]: no effect
reduction of total protein synthesis [5]: about 30%
phosphorylation of Akt at S473 and T308 in fat and liver ([6]; PP242 20 mg/kg IP, insulin): completely inhibit
phosphorylation of Akt in skeletal muscle ([6]; PP242 20 mg/kg IP, insulin): only partially able to inhibit
S6 phosphorylation, all tissues examined [6]: fully inhibited
phosphorylation of 4EBP1 on T36/45 and S65, all tissues examined [6]: effective at blocking

CO[C@H]1C[C@@H]2CC[C@@H](C)[C@@](O)(O2)C(=O)C(=O)N2CCCC[C@H]2C(=O)O[C@H]([C@H](C)C[C@@H]2CC[C@@H](O)[C@H](OC)C2)CC(=O)[C@H](C)/C=C(\C)[C@@H](O)[C@@H](OC)C(=O)[C@H](C)C[C@H](C)/C=C/C=C/C=C/1C [rapamycin]
Akt S473-P [7]: inhibited
Akt T308-P [7]: reduced
proliferation of primary MEFs (primary wild-type MEFs): inhibited growth to the same extent
insulin-stimulated release of 4EBP1 from eIF4E (retention on m7GTP beads) [8]: partial inhibition
cap-dependent translation (renilla/firefly ratio) [9]: did not have a statistically significant effect
reduction of total protein synthesis [5]: does not have a significant effect
phosphorylation of Akt at S473 and T308, all tissues examined ([6]; acute rapamycin 5 mg/kg IP, insulin): activated
S6 phosphorylation, all tissues examined [6]: fully inhibited
phosphorylation of 4EBP1 on T36/45 and S65, all tissues examined [6]: did not block 4EBP1 phosphorylation as completely as PP242
blocking cell proliferation of SIN1−/− MEFs (SIN1−/− MEFs): less effective at blocking cell proliferation than PP242

Source: article PMC2637922, “Active-Site Inhibitors of mTOR Target Rapamycin-Resistant Outputs of mTORC1 and mTORC2” (PLoS Biology, 2009)
